Experimental data taken from patent US9695155B2, “Herbicidal substituted pyrimidinyloxy benzene compounds” (E. I. DU PONT DE NEMOURS AND COMPANY, priority 2013, dated 2017).

Experiments:
[1] = test system: barnyardgrass; experiment: Test A preemergence; type: in vivo, Echinochloa crus-galli; details: for Barnyardgrass plant response rating (0 to 100 scale): 31 g ai/ha; for Plant response rating, Barnyardgrass: 125 g ai/ha
Method in brief: (§1)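 Scoring: eye-based comparison with untreated controls, 0 for no effect through 100 for complete control, at about day 10. Treatments: directed soil spray preemergence; foliar spray postemergence on 2–10 cm plants at the one- to two-leaf stage. Medium: loam soil with sand.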

[2] = test system: kochia; experiment: Test A preemergence; type: in vivo, Kochia scoparia; details: for Kochia plant response rating (0 to 100 scale): 31 g ai/ha; for Plant response rating, Kochia: 125 g ai/ha
Method in brief: as §1

[3] = test system: ragweed; experiment: Test A preemergence; type: in vivo, Ambrosia elatior; details: for Ragweed plant response rating (0 to 100 scale): 31 g ai/ha; for Plant response rating, Ragweed: 125 g ai/ha
Method in brief: as §1

[4] = test system: Italian ryegrass; experiment: Test A preemergence; type: in vivo, Lolium multiflorum; details: for Ryegrass, Italian plant response rating (0 to 100 scale): 31 g ai/ha; for Plant response rating, Ryegrass, Italian: 125 g ai/ha
Method in brief: as §1

[5] = test system: giant foxtail; experiment: Test A preemergence; type: in vivo, Setaria faberii; details: for Foxtail, Giant plant response rating (0 to 100 scale): 31 g ai/ha; for Plant response rating, Foxtail, Giant: 125 g ai/ha
Method in brief: as §1

[6] = test system: pigweed; experiment: Test A preemergence; type: in vivo, Amaranthus retroflexus; details: for Pigweed plant response rating (0 to 100 scale): 31 g ai/ha; for Plant response rating, Pigweed: 125 g ai/ha
Method in brief: as §1

[7] = test system: barnyardgrass; experiment: Test A postemergence; type: in vivo, Echinochloa crus-galli
Method in brief: as §1

[8] = test system: kochia; experiment: Test A postemergence; type: in vivo, Kochia scoparia
Method in brief: as §1

[9] = test system: ragweed; experiment: Test A postemergence; type: in vivo, Ambrosia elatior
Method in brief: as §1

[10] = test system: Italian ryegrass; experiment: Test A postemergence; type: in vivo, Lolium multiflorum
Method in brief: as §1

[11] = test system: giant foxtail; experiment: Test A postemergence; type: in vivo, Setaria faberii
Method in brief: as §1

[12] = test system: pigweed; experiment: Test A postemergence; type: in vivo, Amaranthus retroflexus
Method in brief: as §1

[13] = test system: wheat; experiment: Test A postemergence; type: in vivo, Triticum aestivum
Method in brief: as §1

[14] = test system: corn; experiment: Test A postemergence; type: in vivo, Zea mays
Method in brief: as §1

[15] = test system: blackgrass; experiment: Test A postemergence; type: in vivo, Alopecurus myosuroides
Method in brief: as §1

[16] = test system: galium; experiment: Test A postemergence; type: in vivo, Galium aparine
Method in brief: as §1

[17] = test system: rice; experiment: Test B flooded paddy test; type: in vivo, Oryza sativa; details: Flood, 250 g ai/ha; 0 to 100 scale where 0 is no effect and 100 is complete control
Method in brief: (§2)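 Compound added straight to paddy water, with pots kept flooded 3 cm above soil, on plants grown to the 2-leaf stage. Visual scoring 0-100 (100 = complete control) against untreated controls after 13 to 15 greenhouse days.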

[18] = test system: sedge, umbrella; experiment: Test B flooded paddy test; type: in vivo, Cyperus difformis; details: Flood, 250 g ai/ha; 0 to 100 scale where 0 is no effect and 100 is complete control
Method in brief: as §2

[19] = test system: Heteranthera limosa; experiment: Test B flooded paddy test; type: in vivo; details: Flood, 250 g ai/ha; 0 to 100 scale where 0 is no effect and 100 is complete control
Method in brief: as §2

[20] = test system: barnyardgrass; experiment: Test B flooded paddy test; type: in vivo, Echinochloa crus-galli; details: Flood, 250 g ai/ha; 0 to 100 scale where 0 is no effect and 100 is complete control
Method in brief: as §2

[21] = 0 to 100 scale where 0 is no effect and 100 is complete control
[22] = 31 g ai/ha, 0 to 100 scale, 0 no effect, 100 complete control
[23] = 125 g ai/ha, 0 to 100 scale where 0 is no effect and 100 is complete control
[24] = 500 g ai/ha, 0 to 100 scale where 0 is no effect and 100 is complete control
[25] = 1000 g ai/ha, 0 to 100 scale, 0 no effect, 100 complete control, approx. 10 days
[26] = 1000 g ai/ha, 0 to 100 scale, 0 no effect, 100 complete control

FC(F)(F)COc1cnn(-c2c(Cl)cccc2Oc2ncc(Cl)cn2)c1 [Compound 110]
Barnyardgrass plant response rating (0 to 100 scale) [1]: 30 | Plant response rating, Barnyardgrass [1, 21]: 90 | Kochia plant response rating (0 to 100 scale) [2]: 20 | Plant response rating, Kochia [2, 21]: 80 | Ragweed plant response rating (0 to 100 scale) [3]: 0 | Plant response rating, Ragweed [3, 21]: 10 | Ryegrass, Italian plant response rating (0 to 100 scale) [4]: 0 | Plant response rating, Ryegrass, Italian [4, 21]: 20 | Foxtail, Giant plant response rating (0 to 100 scale) [5]: 100 | Plant response rating, Foxtail, Giant [5, 21]: 100 | Pigweed plant response rating (0 to 100 scale) [6]: 100 | Plant response rating, Pigweed [6, 21]: 100 | Plant response rating, Barnyardgrass [7, 22]: 10 | Plant response rating, Barnyardgrass [7, 23]: 90 | Plant response rating, Kochia [8, 22]: 90 | Plant response rating, Kochia [8, 23]: 100 | Plant response rating, Ragweed [9, 22]: 10 | Plant response rating, Ryegrass, Italian [10, 22]: 0 | Plant response rating, Foxtail, Giant [11, 22]: 20 | Plant response rating, Foxtail, Giant [11, 23]: 90 | Plant response rating, Pigweed [12, 22]: 100 | Plant response rating, Wheat [13, 22]: 0 | Plant response rating, Corn [14, 22]: 10 | Plant response rating, Corn [14, 23]: 50 | Plant response rating, Blackgrass [15, 22]: 20 | Plant response rating, Blackgrass [15, 23]: 80 | Plant response rating, Galium [16, 22]: 40 | Plant response rating, Galium [16, 23]: 90 | Plant response rating, Rice [17]: 0 | Plant response rating, Sedge, Umbrella [18]: 95 | Plant response rating, Ducksalad [19]: 95 | Plant response rating, Barnyardgrass [20]: 45

Fc1cnc(Oc2cccc(Cl)c2-n2cc(OC(F)F)cn2)nc1 [Compound 101]
Barnyardgrass plant response rating (0 to 100 scale) [1]: 60 | Plant response rating, Barnyardgrass [1, 21]: 70 | Kochia plant response rating (0 to 100 scale) [2]: 70 | Plant response rating, Kochia [2, 21]: 70 | Ragweed plant response rating (0 to 100 scale) [3]: 0 | Plant response rating, Ragweed [3, 21]: 30 | Ryegrass, Italian plant response rating (0 to 100 scale) [4]: 0 | Plant response rating, Ryegrass, Italian [4, 21]: 0 | Foxtail, Giant plant response rating (0 to 100 scale) [5]: 70 | Plant response rating, Foxtail, Giant [5, 21]: 90 | Pigweed plant response rating (0 to 100 scale) [6]: 90 | Plant response rating, Pigweed [6, 21]: 100 | Plant response rating, Barnyardgrass [7, 22]: 20 | Plant response rating, Barnyardgrass [7, 23]: 20 | Plant response rating, Kochia [8, 22]: 70 | Plant response rating, Kochia [8, 23]: 100 | Plant response rating, Ragweed [9, 22]: 50 | Plant response rating, Ryegrass, Italian [10, 22]: 0 | Plant response rating, Foxtail, Giant [11, 22]: 20 | Plant response rating, Foxtail, Giant [11, 23]: 60 | Plant response rating, Pigweed [12, 22]: 90 | Plant response rating, Wheat [13, 22]: 20 | Plant response rating, Corn [14, 22]: 10 | Plant response rating, Corn [14, 23]: 20 | Plant response rating, Blackgrass [15, 22]: 20 | Plant response rating, Blackgrass [15, 23]: 20 | Plant response rating, Galium [16, 22]: 40 | Plant response rating, Galium [16, 23]: 60 | Plant response rating, Rice [17]: 0 | Plant response rating, Sedge, Umbrella [18]: 0 | Plant response rating, Ducksalad [19]: 0 | Plant response rating, Barnyardgrass [20]: 0

CC(F)c1cccc(Oc2ncc(Cl)cn2)c1-n1cc(Br)cn1 (stereo not drawn) [Compound 146]
Plant response rating, Barnyardgrass [1, 21]: 20 | Barnyardgrass plant response rating [1, 24]: 90 | Plant response rating, Kochia [2, 21]: 40 | Kochia plant response rating [2, 24]: 100 | Plant response rating, Ragweed [3, 21]: 0 | Ragweed plant response rating [3, 24]: 100 | Plant response rating, Ryegrass, Italian [4, 21]: 0 | Ryegrass, Italian plant response rating [4, 24]: 50 | Plant response rating, Foxtail, Giant [5, 21]: 70 | Foxtail, Giant plant response rating [5, 24]: 100 | Plant response rating, Pigweed [6, 21]: 60 | Pigweed plant response rating [6, 24]: 100 | Barnyardgrass plant response rating [7, 23]: 10 | Plant response rating, Barnyardgrass [7, 24]: 60 | Kochia plant response rating [8, 23]: 70 | Plant response rating, Kochia [8, 24]: 100 | Ragweed plant response rating [9, 23]: 10 | Plant response rating, Ragweed [9, 24]: 10 | Ryegrass, Italian plant response rating [10, 23]: 0 | Plant response rating, Ryegrass, Italian [10, 24]: 40 | Foxtail, Giant plant response rating [11, 23]: 20 | Plant response rating, Foxtail, Giant [11, 24]: 80 | Pigweed plant response rating [12, 23]: 100 | Plant response rating, Pigweed [12, 24]: 100 | Wheat plant response rating [13, 23]: 0 | Plant response rating, Wheat [13, 24]: 0 | Corn plant response rating [14, 23]: 10 | Plant response rating, Corn [14, 24]: 30 | Blackgrass plant response rating [15, 23]: 20 | Plant response rating, Blackgrass [15, 24]: 70 | Galium plant response rating [16, 23]: 50 | Plant response rating, Galium [16, 24]: 100 | Plant response rating, Rice [17]: 0 | Plant response rating, Sedge, Umbrella [18]: 40 | Plant response rating, Ducksalad [19]: 40 | Plant response rating, Barnyardgrass [20]: 20

Cc1noc(-c2cccc(Oc3ncc(Cl)cn3)c2-n2cc(C(F)(F)F)cn2)n1 [Compound 299]
Barnyardgrass plant response rating [1, 25]: 90 | Kochia plant response rating [2, 25]: 100 | Ragweed plant response rating [3, 25]: 70 | Ryegrass, Italian plant response rating [4, 25]: 60 | Foxtail, Giant plant response rating [5, 25]: 100 | Pigweed plant response rating [6, 25]: 100 | Plant response rating, Barnyardgrass [7, 26]: 80 | Plant response rating, Kochia [8, 26]: 70 | Plant response rating, Ragweed [9, 26]: 30 | Plant response rating, Ryegrass, Italian [10, 26]: 70 | Plant response rating, Foxtail, Giant [11, 26]: 90 | Plant response rating, Pigweed [12, 26]: 100 | Plant response rating, Wheat [13, 26]: 20 | Plant response rating, Corn [14, 26]: 70 | Plant response rating, Blackgrass [15, 26]: 80 | Plant response rating, Galium [16, 26]: 80 | Plant response rating, Rice [17]: 15 | Plant response rating, Sedge, Umbrella [18]: 70 | Plant response rating, Ducksalad [19]: 20 | Plant response rating, Barnyardgrass [20]: 20
